Results reported in patent EP4671239A1, “ARYL SUBSTITUENT-CONTAINING DEGRADATION AGENT FOR CDK12/13, PREPARATION METHOD THEREFOR, AND PHARMACEUTICAL COMPOSITION AND USE THEREOF” (Shanghai Institute of Organic Chemistry, Chinese Academy of …, priority 2023, dated 2024).

Tests used:
CDK12 and CDK13 proteins [1] = experiment: Degradation activity on CDK12/13 in MDA-MB-231 cells (Western Blot); type: cell-based; settings: 0.1µM or 0.3µM, 15 h, WB (FIG. 1)
Protocol: Experimental methods: The cell line MDA-MB-231 was purchased from the American Type Culture Collection (ATCC). Conventional Western Blot was used for detection, as follows: MDA-MB-231 cells were seeded at a density of 2 x 10^5/mL in a 12-well plate, with 1 mL per well, and cultured overnight in an incubator in an adherent manner. Then, a certain concentration of compounds was added to act for 15 h. The cells were lysed with a lysis buffer, and protein samples were collected. An appropriate amount of the sample was taken for SDS-PAGE electrophoresis. After electrophoresis, the protein was transferred to a polyvinylidene fluoride (PVDF) membrane using a wet electro-transfer system. The PVDF membrane after electro-transfer was cut into several required strips, which were then placed in a blocking solution (5% skim milk powder diluted in TBS containing 0.1% Tween 20) and blocked at room temperature for 1.5 h. A primary antibody solution was prepared by diluting a primary antibody against the corresponding target protein in TBS containing 0.1% Tween 20 according to the dilution requirements of different antibodies, such as 1:1000 (CST), 1:3000 (Proteintech, Bethyl), and 1:200 (Santacruz). The blocked membrane was placed in the corresponding primary antibody solution and incubated at 4°C for 12-14 h. Then, the cells were washed three times with TBS containing 0.1% Tween 20, each time for 5 min. After washing, the membrane was placed in a secondary antibody solution (horseradish peroxidase-labeled goat anti-rabbit IgG, diluted at 1:2000 in TBS containing 0.1% Tween 20) and reacted at room temperature for 2 h. After washing the membrane three times as above, the membrane was developed with StarSignal plus reagent (GenStar®) and Omni-ECL reagent (Yazyme®), and photographed with Amersham Imager 800 system.

CDK12 and CDK13 proteins [2] = experiment: Degradation activity on CDK12/13 in 22RV1 cells (Western Blot); type: cell-based; settings: for degradation of CDK12 and CDK13 proteins / degradation of CDK12 and CDK13 protein levels in cells / dose dependence of degradation of CDK12 and CDK13 proteins: 22RV1 cells; for degradation of CDK12 and CDK13 proteins: 100 nM, 6 h (FIG. 5); for degradation of CDK12 and CDK13 protein levels in cells: 500 nM, 6 hours, WB (FIG. 4); for dose dependence of degradation of CDK12 and CDK13 proteins: different concentrations, 6 h (FIG. 4B, FIG. 5)
Protocol: Experimental methods: The cell line, 22RV1 cell line was purchased from the American Type Culture Collection (ATCC). Conventional Western Blot was used for detection as follows: 22RV1 cells were seeded in a certain number in a 12-well plate, and cultured overnight in an incubator in an adherent manner. […] The cells were lysed with a lysis buffer, and samples were collected. Then, an appropriate amount of the samples was taken for SDS-PAGE electrophoresis. After electrophoresis, the proteins were transferred to nitrocellulose membranes using a semi-dry electro-transfer system. The nitrocellulose membrane was placed in a blocking solution (5% skim milk powder diluted in TBS containing 0.1% Tween 20) and blocked at room temperature for 2 h. The membranes were then placed in a primary antibody solution (1: 1000 diluted in TBS containing 0.1% Tween 20), respectively, and incubated at 4°C overnight. The cells were washed three times with TBS containing 0.1% Tween 20, each time for 15 min. The membrane was placed in a secondary antibody solution (horseradish peroxidase-labeled goat anti-rabbit IgG, diluted at 1:1000 in TBS containing 0.1% Tween 20) and reacted at room temperature for 1 h. After washing the membrane three times as above, the membrane was developed with ECL plus reagent and photographed using Amersham Imager 600 system.

[3] = tested on: prostate cancer VCap cells; experiment: Proliferation-inhibiting activity on VCap cells (CellTiter-Glo); type: cell-based; settings: Homo sapiens; VCap cell line, CellTiter-Glo (FIG. 6)
Protocol: The cell proliferation-inhibiting activity of the compounds was determined using the CellTiter-Glo Luminescent Cell Viability Assay (Promega, Madison, WI). The cells were seeded in a 96-well plate in their respective culture media and incubated at 37°C in a 5% CO2 incubator. After overnight incubation, serial dilutions of the compounds were prepared and added to the 96-well plate. A volume of CellTiter-Glo reagent equal to the volume of the cell culture medium present in each well was added (e.g., 100 microliters of the reagent was added to 100 microliters of the culture medium for the cells in the 96-well plate). The contents were mixed on an orbital shaker for 2 min to induce cell lysis. The 96-well plate was incubated at room temperature for 10 minutes to stabilize a luminescent signal. Luminescence was recorded: the luminescence signal of each well was acquired using an Infinite M1000 Pro plate reader (Tecan, Zürich, Switzerland), and the data were analyzed using GraphPad Prism software (GraphPad Software Inc, La Jolla, CA).

[4] = Pharmacokinetics and bioavailability test in rats (Example 60); type: in vivo; settings: SD rats; for F: bioavailability calculated from AUC; for oral pharmacokinetic properties: summary in words of Tables 2-6; for Cmax / Tmax / clearance / half-life: rat
Protocol: Pharmacokinetics and bioavailability tests in rats. SD rats were given a single oral (10 mg/kg), intravenous (2.5 mg/kg) and intraperitoneal (10 mg/kg) dose, followed by animal blood sample collection at appropriate time points. Heparin was added for anticoagulation, and the samples were centrifuged at 8000 rpm for 6 min. The supernatant was collected and stored at -20°C for HPLC-MS analysis. The blood samples underwent protein precipitation with acetonitrile at 12 000 rpm * 10 min, and the supernatant was used for HPCL-MS analysis. The data underwent parameter fitting with DAS2.0, to obtain compartmental model and non-compartmental model parameters, respectively. The oral bioavailability of the compounds was calculated based on the area under the plasma concentration-time curve (AUC) data. […] Table 2. Pharmacokinetic experimental results of compounds YJZ9069 and YJZ1102

[5] = Sprague-Dawley, plasma, IV 2.5 mg/kg
[6] = Sprague-Dawley, plasma, PO 10 mg/kg

| SMILES | degradation of CDK12 and CDK13 protein levels in cells (CDK12 and CDK13 proteins [1]) | degradation of CDK12 and CDK13 proteins (CDK12 and CDK13 proteins [2]) | degradation of CDK12 and CDK13 protein levels in cells (CDK12 and CDK13 proteins [2]) | dose dependence of degradation of CDK12 and CDK13 proteins (CDK12 and CDK13 proteins [2]) | IC50 [3] [nM] | F ([4]; PO 10 mg/kg) [%] | oral pharmacokinetic properties [4] | Cmax [4, 5] [ng/mL] | Tmax [4, 5] [h] | clearance [4, 5] [mL/min/kg] | half-life [4, 5] [h] | Cmax [4, 6] [ng/mL] | Tmax [4, 6] [h] | half-life [4, 6] [h] | further results |
| --- | --- | --- | --- | --- | --- | --- | --- | --- | --- | --- | --- | --- | --- | --- | --- |
| N#Cc1ccc(N[C@H]2CC[C@H](N(C(=O)NCc3ccccc3)c3ccc(N4CCN(C[C@@H]5CCN(c6ccc7c(c6)C(=O)N(C6CCC(=O)NC6=O)C7=O)C5)CC4)cc3)CC2)nc1 (stereo partly drawn) [ZLC5-106] | effectively degrade | – | – | – | – | – | – | – | – | – | – | – | – | – | – |
| N#Cc1ccc(N[C@H]2CC[C@H](N(C(=O)NCc3ccccc3)c3ccc(N4CCC(CN5CCN(c6ccc7c(c6)C(=O)N(C6CCC(=O)NC6=O)C7=O)CC5)CC4)cc3)CC2)nc1 (stereo partly drawn) [ZLC6-42] | effectively degrade | – | – | – | – | – | – | – | – | – | – | – | – | – | – |
| O=C1CCC(N2C(=O)c3ccc(N4CCC(N5CCN(c6ccc(N(C(=O)NCc7ccccc7)[C@H]7CC[C@H](Nc8ncc9ccccc9n8)CC7)cn6)CC5)CC4)cc3C2=O)C(=O)N1 (stereo partly drawn) [YJZ1205] | – | almost completely degrade | effectively degrade | dose-dependent manner | 13.5 | 15.87 | excellent | 3620 | 0.08 | 3.93 | 3.81 | 581 | 4.7 | 4.2 | – |
| CN1C(=O)CCC(N2C(=O)c3cccc(OCC(=O)N4CCN(c5ccc(N(C(=O)NCc6ccccc6)[C@H]6CC[C@H](Nc7ncc8ccccc8n7)CC6)cc5)CC4)c3C2=O)C1=O (stereo partly drawn) [YJZ1078] | – | – | – | – | > 5000 | – | – | – | – | – | – | – | – | – | induction of degradation of CDK12 and CDK13 proteins (CDK12 and CDK13 proteins [2]; cell line and concentration not given there): cannot effectively induce degradation |
| O=C1CCC(N2C(=O)c3ccc(N4CCC(N5CCN(c6ccc(N(C(=O)NCc7ccccc7F)[C@H]7CC[C@H](Nc8ncc9ccccc9n8)CC7)cc6)CC5)CC4)cc3C2=O)C(=O)N1 (stereo partly drawn) [YJZ1203] | – | almost completely degrade | effectively degrade | dose-dependent manner | 18.8 | 16.95 | excellent | 3060 | 0.08 | 5.22 | 6.19 | 382 | 6.7 | 6.4 | – |
| O=C1CCC(N2C(=O)c3ccc(N4CC(CN5CCN(c6ccc(N(C(=O)NCc7ccccc7)[C@H]7CC[C@H](Nc8ncc9ccccc9n8)CC7)cc6)CC5)C4)cc3C2=O)C(=O)N1 (stereo partly drawn) [YJZ1102] | – | – | effectively degrade | – | 16.3 | 17.28 | excellent | – | – | – | – | – | – | – | F ([4]; IP 10 mg/kg): 94.15%; Cmax ([4]; in vivo, IP 10 mg/kg): 662 ng/mL; Tmax ([4]; in vivo, IP 10 mg/kg): 6.67 h; half-life ([4]; in vivo, IP 10 mg/kg): 26.4 h; Cmax ([4]; in vivo, IV 2.5 mg/kg): 2200 ng/mL; Tmax ([4]; in vivo, IV 2.5 mg/kg): 0.08 h; clearance ([4]; in vivo, IV 2.5 mg/kg): 3.32 mL/min/kg; half-life ([4]; in vivo, IV 2.5 mg/kg): 10.7 h; Cmax ([4]; in vivo, PO 10 mg/kg): 148 ng/mL; Tmax ([4]; in vivo, PO 10 mg/kg): 6 h; half-life ([4]; in vivo, PO 10 mg/kg): 10.4 h |
